From US20190000908A1, “COMPOSITIONS AND METHODS FOR TREATING AND/OR PREVENTING A URINARY TRACT INFECTION” (priority 2017, published 2019)

How the values were obtained:
Type in all cases: cell-based
[1] = test system: E. coli NCTC 4169; assay: Human Red Blood Cell (HRBC) agglutination assay, E. coli NCTC 4169; settings: strain 4169, FIG. 1 Raw C
Protocol: (§1) A whole blood (type 0 positive) was acquired from a volunteer and stored with EDTA at 4° C. Before the agglutination experiment, the red blood cells were isolated by centrifugation at 800 rpm for 15 minutes (in order to remove the platelets and plasma). The resulting red blood cells were suspended in phosphate buffered (PBS, pH 7.4) and washed three times to remove EDTA and other blood components, after each wash the supernatant was removed and the remaining cells were resuspended in PBS. Finally, RBC were diluted in 10 ml of PBS to create 1% RBC suspension that was stored at 4° C. until use.
(§2) Standard E. coli strains (NCTC 4169 and NCTC 9775) were grown on TSA plates for 24 h at 37° C. Colony was collected with sterile culturing needle and cells suspended in PBS and washed three times with PBS, after each wash the supernatant was removed. The cells were resuspended in PBS at final concentration of 10^9 cells/ml and stored at 4° C. for an hour.
(§3) The experiments were conducted in round bottom 96-well plate, with final volume 200 μl, made of 98 μl of the 1% RBC suspension, 2 μl extract (or PBS) and 100 μl bacterial suspension or PBS (as control). Extract were prepared in advance at different concentrations in PBS (10 mg/ml, 3 mg/ml, 1 mg/ml, 50 μg/ml and 1 μg/ml). […]

[2] = test system: E. coli NCTC 9775; assay: Human Red Blood Cell (HRBC) agglutination assay, E. coli NCTC 9775; settings: strain 9775, FIG. 1 Raw C
Protocol: as §1, §2, §3

[3] = test system: E. coli strains (NCTC 4169 and NCTC 9775); assay: Human Red Blood Cell (HRBC) agglutination assay, strain not specified for the result; settings: human RBC + E. coli; strain not stated
Protocol: as §1, §2, §3

O=C[C@@H](O)[C@@H](O)[C@H](O)[C@H](O)CO [D-mannose, D-Mannose]
D-mannose sensitivity of bacteria-induced RBC agglutination [1]: not D-mannose sensitive
D-mannose sensitivity of bacteria-induced RBC agglutination [2]: D-mannose sensitive
concentration that induced agglutination prevention/inhibition [3]: 5 to 10 mg/mL
